Assay results from US20210405025A1, “IDENTIFYING COMPOUNDS FOR TREATING CANCER AND USE THEREOF” (THE UAB RESEARCH FOUNDATION, priority 2018, published 2021).
Counter-ions that a name gives are not always drawn.

Tested on: relapsed AML cells
Test: Drug sensitivity assay, 1,536-well, 3-day culture with individual approved drugs at 10 μM, viability by alamarBlue
Assay type: cell-based, human
Conditions: number of relapsed AML cases out of 18 tested with >70% cell death; 10 μM, 3-day culture
Procedure: Drug sensitivity assays were performed using a 1,536-well platform where all cells and reagents were deposited in wells using an acoustic liquid handling unit that is highly accurate for dispensing of nanoliter volumes of liquid. […] After dispensing the cells into the wells, an independent drug at a known concentration is added to each well and incubated with the cells. After three days, the percentage of live cells in each well is determined to assess the killing efficiency of each compound. […] Cell viability assays are known to those of skill in the art. See, for example, Pemovska et al., Individualized systems medicine strategy to tailor treatments for patients with chemorefractory acute myeloid leukemia. Cancer Discovery 3:1416-1429, 2013; Pabst et al., Identification of small molecules that support human leukemia stem cell activity ex vivo. Nature Methods 11:436-442, 2014; Baccelli et al., A novel approach for the identification of efficient combination therapies in primary human acute myeloid leukemia specimens. Blood Cancer Journal 7:e529, 2017. In studies described herein, the 1,536-well format was utilized, which allowed for use of four times fewer cells as well as less drug and media components due to the small assay volume of 5 microliters. […] Other compounds like CellTiter-Glo (Promega, Madison, Wis.) are equally appropriate reagents for determining cell viability.
Conditions for the drug screening assays were as described in Pabst et al., Identification of small molecules that support human leukemia stem cell activity ex vivo, Nature Methods 11:436-442, 2014). Using this protocol, cells were cultured in Iscove's Modified Dulbecco's Medium (IMDM), 15% BIT (bovine serum albumin, insulin, transferrin; Stem Cell Technologies 09500 (Vancouver, Calif.)), 100 ng/ml SCF (Shenandoah 100-04 (Warwick, Pa.)), 50 ng/ml FLT3L (Shenandoah 100-21), 20 ng/ml IL-3 (Shenandoah 100-80), 20 ng/ml G-CSF (Shenandoah 100-72), 10^-4 M β-mercaptoethanol, gentamicin (50 μg/ml) and ciprofloxacin (10 μg/ml).
Cells were removed from liquid nitrogen and placed in a 37° C. bath, just until thawed. For 1,536-well screens utilizing 6,000 wells about 100 million cells were thawed. The volume was doubled with pre-warmed culture media and placed on ice for about one to two minutes. The cells were brought to a final volume of about 8 to 10 mL before spinning down at 1,100 rpm for 5 min at 10° C. The pelleted cells were resuspended in 10 mL of culture media and plated in a tissue-culture treated T75 flask at a density of 1 to 2 million cells/ml. The cells were cultured overnight prior to fluorescence-activated cell sorting of viable cells on the following day.
After cells were cultured overnight, a cell scraper was used to remove any cells that adhered to the plastic. The cells were gently pipetted up and down to break up aggregates. Then, the entire volume was transferred to a 50 mL conical tube through a 70 micron cell strainer to remove cell clumps. The T75 flask was rinsed and scraped with about 10 mL HBSS and transferred to the same 50 mL conical tube through the strainer. The harvested cells were spun down at 1,100 rpm for 5 min at 10° C. The cells were then resuspendd in about 300-500 microliters FACS buffer (HBSS+2% FBS+1× propidium iodide) and transferred to a FACS tube. The tube was placed on ice and viable cells that are forward- and side-scatter gated on viable myeloid blasts were sorted by FACS (the scatter gate should exclude small lymphocytes, large myeloid cells, and debris). After sorting the required number of viable cells, the cells were spun down at 1,100 rpm for 5 min at 10° C. and subsequently resuspended at 4,000-4,500 cells per 5 microliter volume of complete culture media with growth factors and penicillin/streptomycin.

| Compound | #Cases >70% cell death |
| --- | --- |
| C[n+]1c2cc(N)ccc2cc2ccc(N)cc21.[Cl-] [ACRIFLAVINIUM HYDROCHLORIDE] | 5 |
| EXATECAN MESYLATE | 12 |
| N#CN=C(NCCCCCCOc1ccc(Cl)cc1)Nc1ccncc1 [GMX1778] | 16 |
| CN(C(=O)CN(CCO)CC(=O)N(C)C(C)(C)Cc1ccccc1)C(C)(C)Cc1ccccc1 [OXETHAZAINE] | 1 |
| COc1cc2c(cc1OC)CN(CCc1ccc(NC(=O)c3cccc4c(=O)c5cccc(OC)c5[nH]c34)cc1)CC2 | 2 |
| CC(=O)O[C@H]1C[C@H](O[C@H]2[C@@H](O)C[C@H](O[C@H]3[C@@H](O)C[C@H](O[C@H]4CC[C@@]5(C)[C@H](CC[C@@H]6[C@@H]5C[C@@H](O)[C@]5(C)[C@@H](C7=CC(=O)OC7)CC[C@]65O)C4)O[C@@H]3C)O[C@@H]2C)O[C@H](C)[C@H]1O[C@@H]1O[C@H](CO)[C@@H](O)[C@H](O)[C@H]1O [LANATOSIDE C] | 18 |
| O=C(Nc1ccc(-c2ccnc(Nc3ccc(N4CCOCC4)cc3)n2)cc1)C1CCCN1 (stereo not drawn) [XL019] | 3 |
| CC(C)C(=O)Nc1ccc([N+](=O)[O-])c(C(F)(F)F)c1 [FLUTAMIDE] | 2 |
| CCCCCCCCCCCCCCCC[N+](C)(C)C.[Br-] [CETRIMONIUM BROMIDE] | 17 |
| CC[C@H](CC#N)OC(=O)N[C@@H](C)c1cccc(NC(=O)Nc2ccc(-c3cnco3)c(OC)c2)c1 [AVN944] | 10 |
| O=c1cc[nH]c(=O)[nH]1 [URACIL] | 7 |
| CCC[C@H](Nc1nc(-c2ccc(NC(=O)NCC)c(OC)c2)ncc1C)c1cccnc1 [LEXIBULIN] | 13 |
| Cc1cc(C(C)(C)CC(C)(C)C)ccc1OCCOCC[N+](C)(C)Cc1ccccc1.[Cl-] [METHYLBENZETHONIUM CHLORIDE] | 16 |
| C/C=C(\C)C(=O)N[C@@H](c1ccccc1)[C@@H](O)C(=O)O[C@H]1C[C@@]2(O)[C@@H](OC(=O)c3ccccc3)[C@@H]3[C@]4(OC(C)=O)CO[C@@H]4C[C@H](O)[C@@]3(C)C(=O)[C@H](OC(C)=O)C(=C1C)C2(C)C [CEPHALOMANNINE] | 7 |
| O=C1NCCc2[nH]c(-c3ccncc3)cc21 [PHA-767491] | 18 |
| COc1ccc2cc3[n+](cc2c1OC)CCc1cc2c(cc1-3)OCO2 [BERBERINE CHLORIDE] | 1 |
| COc1ccc(-c2ccc3ncc4c(c3c2)n(-c2ccc(N3CCNCC3)c(C(F)(F)F)c2)c(=O)n4C)cn1 [NVP-BGT226] | 8 |
| CN[C@H](C(=O)N[C@H](C(=O)N(C)[C@H](/C=C(\C)C(=O)O)C(C)C)C(C)(C)C)C(C)(C)c1ccccc1 [TALTOBULIN] | 14 |
| O=c1[nH]c(=O)n([C@H]2C[C@H](O)[C@@H](CO)O2)cc1F [FLOXURIDINE] | 8 |
| AMONAFIDE MALATE | 8 |
| CCN(CC)CCNC(=O)c1c(C)[nH]c(/C=C2\C(=O)Nc3ccc(F)cc32)c1C [SUNITINIB MALATE] | 15 |
| c1ccc(CC2=NCCN2)cc1 [TOLAZOLINE HYDROCHLORIDE] | 4 |
| CO[C@H]1C[C@H](O[C@@H]2/C(C)=C/C[C@@H]3C[C@@H](C[C@]4(CC[C@H](C)[C@@H](C5CCCCC5)O4)O3)OC(=O)[C@@H]3C=C(C)/C(=N/O)[C@H]4OC/C(=C\C=C\[C@@H]2C)[C@]43O)O[C@@H](C)[C@@H]1O [SELAMECTIN] | 18 |
| O=C1Cc2cc(CCN3CCN(c4nsc5ccccc45)CC3)c(Cl)cc2N1 [ZIPRASIDONE] | 3 |
| C#C[C@]1(O)CC[C@H]2[C@@H]3CCC4=Cc5oncc5C[C@]4(C)[C@H]3CC[C@@]21C [DANAZOL] | 1 |
| ABAMECTIN | 18 |
| Clc1ccccc1CN1CCc2sccc2C1 [TICLOPIDINE] | 1 |

| Compound | #Cases >70% cell death |
| --- | --- |
| CC1(C)CC(=O)c2c(C(F)(F)F)nn(-c3ccc(C(N)=O)c(N[C@H]4CC[C@H](O)CC4)c3)c2C1 [PF-04928473] | 18 |
| CNC[C@H](O)[C@@H](O)[C@H](O)[C@H](O)CO [MEGLUMINE] | 1 |
| COc1cc(NS(C)(=O)=O)ccc1Nc1c2ccccc2nc2ccccc12 [AMSACRINE] | 4 |
| NNC(=O)c1ccncc1 [ISONIAZID] | 1 |
| CC(C)N1CCN(c2ccc(OCC3COC(Cn4cncn4)(c4ccc(Cl)cc4Cl)O3)cc2)CC1 (stereo not drawn) [TERCONAZOLE] | 7 |
| C#Cc1cccc(Nc2ncnc3cc(OCCOC)c(OCCOC)cc23)c1 [ERLOTINIB] | 6 |
| COC(=O)C1=C(C)NC(C)=C(C(=O)OCCN2CCN(C(c3ccccc3)c3ccccc3)CC2)C1c1cccc([N+](=O)[O-])c1 (stereo not drawn) [MANIDIPINE] | 5 |
| Nc1nc(NC2CC2)c2ncn([C@H]3C=C[C@@H](CO)C3)c2n1 [ABACAVIR SULFATE] | 1 |
| CC(NCCC(c1ccccc1)c1ccccc1)c1ccccc1 (stereo not drawn) [FENDILINE HYDROCHLORIDE] | 1 |
| CN(C)C[C@@H]1CCn2cc(c3ccccc32)C2=C(C(=O)NC2=O)c2cn(c3ccccc23)CCO1 [LY333531] | 12 |
| Clc1ccc(CSC(Cn2ccnc2)c2ccc(Cl)cc2Cl)cc1 (stereo not drawn) [SULCONAZOLE NITRATE] | 5 |
| Cc1cc2nc3ccc(N(C)C)cc3[s+]c2cc1N [TOLONIUM CHLORIDE] | 11 |
| CCC(C)n1ncn(-c2ccc(N3CCN(c4ccc(OCC5COC(Cn6cncn6)(c6ccc(Cl)cc6Cl)O5)cc4)CC3)cc2)c1=O (stereo not drawn) [ITRACONAZOLE] | 6 |
| CC(C)(C)[C@]1(O)CCN2C[C@H]3c4ccccc4CCc4cccc(c43)[C@@H]2C1.Cl [(−)-BUTACLAMOL HCL] | 3 |
| CCOC(=O)C1=C(COCCN)NC(C)=C(C(=O)OC)C1c1ccccc1Cl (stereo not drawn) [AMLODIPINE] | 14 |
| CCN[C@H]1C[C@H](C)S(=O)(=O)c2sc(S(N)(=O)=O)cc21 [DORZOLAMIDE] | 4 |
| Nc1nc2nc[nH]c2c(=S)[nH]1 [TIOGUANINE (6-thioguanine), TIOGUANINE] | 16 |
| CCOC(=O)c1c(N)sc2c1CCN(Cc1ccccc1)C2 [Y-3642] | 1 |
| CCN(CC)CCOc1ccc(C(=C(Cl)c2ccccc2)c2ccccc2)cc1 [CLOMIFENE] | 10 |
| COc1ccc(S(=O)(=O)N(C(C)=O)c2ccccc2/C=C/c2cc[n+]([O-])cc2)cc1 [HMN-214] | 5 |
| CCc1cc(Cl)c(OC)c(C(=O)NC[C@@H]2CCCN2CC)c1O [ETICLOPRIDE HYDROCHLORIDE] | 1 |
| Nc1ccn([C@@H]2O[C@H](CO)[C@@H](O)C2(F)F)c(=O)n1 [GEMCITABINE] | 16 |
| COCCCC/C(=N\OCCN)c1ccc(C(F)(F)F)cc1 [FLUVOXAMINE MALEATE] | 1 |
| O=C(CCCCCCC(=O)Nc1ccccc1)NO [VORINOSTAT] | 18 |
| COc1cc(Nc2c(C#N)cnc3cc(OCCCN4CCN(C)CC4)c(OC)cc23)c(Cl)cc1Cl [BOSUTINIB] | 12 |
| N#C[C@@H]1CCCN1C(=O)CNC12CC3CC(CC(O)(C3)C1)C2 [VILDAGLIPTIN] | 1 |
| O=C(c1ccc(OCCN2CCCCC2)cc1)c1c(-c2ccc(O)cc2)sc2cc(O)ccc12 [RALOXIFENE] | 3 |
